Measured values as given in patent US7744920B2, “Use of liposomal glucocorticoids for treating inflammatory states” (Hadasit Medical Research Services & Development Limited, priority 2004, dated 2010).
Where “and” joins values, the source holds several entries; their conditions need not be identical. Equal entries are not always repeated.

What was measured:
Adjuvant Arthritis (AA) [1] = assay: Treatment of Adjuvant Arthritis (AA), injections from day 10 after induction; assay type: in vivo, Lewis rats; settings: 2 i.v. injections on days 10 and 14, 5 then 10 mg/kg BW (FIG. 7A)
[2] = Precipitation of MPS in calcium acetate solution; assay type: physicochemical; settings: 600 mOsm Ca-acetate, 63° C, 5 mg/ml, 40 minutes
Experimental: To 600 mOsm Ca-acetate solution at 63° C and at different pH points MPS was added at final concentration of 5 mg/ml, then mixed solution was incubated for 40 minutes after which the solution was centrifuged and the supernatant was analyzed using […].

[3] = Experimental: Surface tension was measured using μtrouge S (Kibron Inc., Helsinki Finland). A solution containing GC derivative (300 μL) was placed in the well after calibration and zeroing of the sensor using pure water and air. The measurement was performed at 26° C.
[4] = Loading efficiency of MPS into liposomes; assay type: physicochemical; settings: HSPC:Chol:2000PEG-DSPE liposomes
Experimental: A stock solution of methylprednisolone hemisuccinate sodium salt (MPS, the GC derivative) was dissolved in 5% dextrose (pH 7.2) to a concentration of ˜9 mg/ml and added to the preformed SSL dispersion after the calcium acetate gradient was established. MPS concentration was ˜9 mg/ml and phospholipid ˜32 mM phosphate.
Loading was achieved by incubation of the components above for the desired time at 62° C. (above matrix lipid Tm). Liposomes were then cooled to 4° C. and dialyzed against 5% dextrose at 4° C. to remove acetate released during loading and to remove unloaded drug or alternatively unloaded drug was removed by the ion exchanger Dowex 1×400 mesh (Cl^− form).
Loading efficiency is the ratio between MPS/phospholipid concentrations after and before loading. The quantification of MPS was done in an HPLC apparatus as described by Anderson, and Taphouse 1981 [Anderson B. D. and Taphouse. V. J Pharm Sci, 70:181-6 (1981)], quantification of phospholipid was done by modified Bartlet procedure [Shmeeda, H., et al. In: Methods in Enzymology “Liposomes”, (Düzgünes, N., ed.), 367:272-292 (2003)].

[5] = State of aggregation (turbidity) of MPS as function of pH; assay type: physicochemical
Experimental: Aggregation of MPS was determined from the change in turbidity measured as intensity of light scattered at 90° to excitation beam using a spectrofluormeter under conditions that MPS lack absorbance (excitation and emission at the same wavelength Ex=600 nm Em=600 nm). There is a large increase in the light scattered by MPS solution/dispersion due to formation of aggregates.
The intensity of scattered light (at 90° to the excitation), also defined as turbidity is proportional to concentration and to the size of the aggregates. [Zuidam, N. J. and Barenholz, Y., Biochim. Biophys. Acta 1368:115-128 (1998)]. The state of aggregation of MPS was tested in the following manner: To quartz cuvette MPS (2 ml) at concentration of ˜6.5mg/ml MPS was added. The solution was tittered with HCl (1.756 M) and light scattering using excitation and emission at (both at 600 nm with attenuation of 1%) and pH of the solution was monitored.

Adjuvant Arthritis (AA) [6] = assay: Effect of SSL-MPS on AA at peak of disease; assay type: in vivo, Lewis rats; settings: for AA score after the second injection at day 23: SSL-MPS and free-MPS 10 mg/kg BW on days 19, 23, Remicade 5 mg/kg on day 19; for clinical score immediately after the first injection: day 19, SSL-MPS and free-MPS 10 mg/kg BW, Remicade 5 mg/kg
[7] = Partition coefficient (logD) by shake flask; assay type: physicochemical; settings: FIG. 1B
Experimental: Partition coefficient (logD) of some GC derivatives (which are amphipathic weak acids) was determined by the ‘shake flask’ as described [Samuni, A. M. and Barenholz, Y., Free Radicals Biol. Med. 22:1165-1174 (1997)].

[8] = Stability of liposomal formulation upon storage at 4° C. (gel exclusion chromatography); assay type: physicochemical; settings: encapsulated in liposome, storage at 4° C. for 14 months
Experimental: The level of MPS released from SSL-MPS was determined by first separating the liposomes from free MPS using gel exclusion chromatography on Sepharose cross-linked CL-4B column using. Liposomes were eluted at the void volume and the free MPS at the later eluted fractions (FIG. 3A-3B). Stability upon storage at 4° C. and kinetic of release at 37° C. in 80% plasma was determined by gel exclusion chromatography described above. Then the different column fractions were analyzed as described above, for MPS, phospholipids and Ca in the void volume fraction.

[9] = liposomal formulation, after 24 hours, ex vivo; cited from earlier work
[10] = cited from earlier work

C[C@H]1C[C@@H]2[C@H]([C@@H](O)C[C@@]3(C)[C@H]2CC[C@]3(O)C(=O)COC(=O)CCC(=O)[O-])[C@@]2(C)C=CC(=O)C=C12.[Na+] [MPS, methylprednisolone sodium hemisuccinate]
effect on AA (Adjuvant Arthritis (AA) [1]): neither the free MPS nor the empty liposome had any effect on AA
% MPS precipitated ([2]; pH 4.5): 97% and 96.6%
% MPS precipitated ([2]; pH 6.2): 42.8%
% MPS precipitated ([2]; pH 6.8): 44.1%
CAC (critical association/aggregation concentration) ([3]; 26° C.): ~5 mM
surface activity ([3]; concentrations 0.785-30 mM): surface active at all concentrations used
% Encapsulation ([4]; batch 04 May 2005, after dialysis): 93.2%
% Encapsulation ([4]; batch 06 Apr. 2005, after dialysis): 96.6%
% Encapsulation ([4]; batch 18 Jul. 2004, after dialysis): 99.1%
state of aggregation (turbidity) ([5]; acidic pH): aggregates
state of aggregation (turbidity) ([5]; pH 7.2): non-aggregated water soluble
AA score after the second injection at day 23 (Adjuvant Arthritis (AA) [6]): minimal decline
clinical score immediately after the first injection (Adjuvant Arthritis (AA) [6]): very slow decline
partition coefficient at different pH points [7]: amphipathic substance

C[C@H]1C[C@@H]2[C@H]([C@@H](O)C[C@@]3(C)[C@H]2CC[C@]3(O)C(=O)COC(=O)CCC(=O)O)[C@@]2(C)C=CC(=O)C=C12 [Methylprednisolone hemisuccinate]
reduction in the GC derivative from initial concentration [8]: less than 20%

triamcinolone acetonide phosphate
acidic corticosteroid retained by the liposome [9]: more than 75%
pKa [10]: below 2

REMICADE: positive control, Remicade 5 mg/kg (on day 19)
AA score after the second injection at day 23 (Adjuvant Arthritis (AA) [6]): minimal decline
clinical score immediately after the first injection (Adjuvant Arthritis (AA) [6]): very slow decline
